Measured values: PubChem BioAssay AID256 (DTP/NCI, 2004)
Toxic doses and inconclusive results are not listed.

System: CD2F1 mice, L1210 leukemia ip, survival T/C
Assay: NCI In Vivo Anticancer Drug Screen. Data for tumor model L1210 Leukemia (intraperitoneal) in CD2F1 (CDF1) mice
Conditions: endpoint: mean survival time, higher = longer survival
Procedure, shortened: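 Antitumor effect is scored in animals hosting a serially transplanted tumor. Values compare compound-dosed animals against vehicle-only controls as a simple quotient.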

[1] = dose: 100.0 mg/kg/injection, schedule: Q01DX001 (ip), vehicle: saline
[2] = dose: 200.0 mg/kg/injection, schedule: Q01DX001 (ip), vehicle: saline
[3] = dose: 400.0 mg/kg/injection, schedule: Q01DX001 (ip), vehicle: saline
[4] = dose: 100.0 mg/kg/injection, schedule: Q04DX002 (ip), vehicle: saline with Tween-80
[5] = dose: 100.0 mg/kg/injection, schedule: Q01DX009 (ip), vehicle: saline with Tween-80
[6] = dose: 100.0 mg/kg/injection, schedule: Q04DX003 (ip), vehicle: saline with Tween-80
[7] = dose: 200.0 mg/kg/injection, schedule: Q01DX009 (ip), vehicle: saline with Tween-80
[8] = dose: 200.0 mg/kg/injection, schedule: Q04DX003 (ip), vehicle: saline with Tween-80
[9] = dose: 400.0 mg/kg/injection, schedule: Q01DX009 (ip), vehicle: saline with Tween-80
[10] = dose: 400.0 mg/kg/injection, schedule: Q04DX003 (ip), vehicle: saline with Tween-80
[11] = dose: 200.0 mg/kg/injection, schedule: Q04DX002 (ip), vehicle: saline with Tween-80
[12] = dose: 100.0 mg/kg/injection, schedule: Q04DX002 (ip), vehicle: other
[13] = dose: 200.0 mg/kg/injection, schedule: Q04DX002 (ip), vehicle: other
[14] = dose: 400.0 mg/kg/injection, schedule: Q04DX002 (ip), vehicle: other
[15] = dose: 50.0 mg/kg/injection, schedule: Q01DX001 (ip), vehicle: Klucel (hydroxypropylcellulose) (HPC)

With `O=C(c1ccccc1)C1(O)CCCCC1` the T/C (dose: 50.0 mg/kg/injection, schedule: Q01DX009 (ip), vehicle: saline sonified) was 97 % of control, the T/C (dose: 100.0 mg/kg/injection, schedule: Q01DX009 (ip), vehicle: saline sonified) was 105 % of control and the T/C (dose: 200.0 mg/kg/injection, schedule: Q01DX009 (ip), vehicle: saline sonified) was 97 % of control.

`CC(C)(O)C(=NCc1ccccc1)c1ccccc1` was tested, and the T/C [1] was 102 % of control, the T/C [2] was 93 % of control and the T/C [3] was 104 % of control.

In the case of `O=[N+]([O-])c1cc(CCl)ccc1CCl`, the T/C (dose: 75.0 mg/kg/injection, schedule: Q01DX001 (ip), vehicle: other) is reported as 96 % of control and the T/C (dose: 150.0 mg/kg/injection, schedule: Q01DX001 (ip), vehicle: other) is reported as 96 % of control.

`CCN(CC)Cc1ccc([NH-])c([NH-])c1.CCN(CC)Cc1ccc([NH-])c([NH-])c1.[Cl][Pt+2][Cl].[Cl][Pt+2][Cl].[Cl][Pt+2][Cl]` was tested, and the T/C (dose: 3.13 mg/kg/injection, schedule: Q04DX003 (ip), vehicle: water) was 103 % of control, the T/C (dose: 6.25 mg/kg/injection, schedule: Q04DX003 (ip), vehicle: water) was 108 % of control and the T/C (dose: 12.5 mg/kg/injection, schedule: Q04DX003 (ip), vehicle: water) was 110 % of control. The T/C (dose: 25.0 mg/kg/injection, schedule: Q04DX003 (ip), vehicle: water) was 119 % of control and the T/C (dose: 50.0 mg/kg/injection, schedule: Q04DX003 (ip), vehicle: water) was 89 % of control.

In the case of `COc1ccccc1N=Nc1c(O)n(-c2ccccc2OC)c(=S)n(-c2ccc(Br)cc2)c1=O`, the T/C (dose: 25.0 mg/kg/injection, schedule: Q04DX002 (ip), vehicle: saline with Tween-80) is reported as 100 % of control, the T/C (dose: 50.0 mg/kg/injection, schedule: Q04DX002 (ip), vehicle: saline with Tween-80) is reported as 100 % of control and the T/C [4] is reported as 95 % of control.

With `CC(=O)N(c1c(-c2ccccc2)nc2ccccc2c1C(=O)O)C1CCCCC1` the T/C [5] was 100 % of control, the T/C [6] was 102 % of control and the T/C [7] was 96 % of control. The T/C [8] was 98 % of control, the T/C [9] was 90 % of control and the T/C [10] was 90 % of control.

With `CC1=COC(Cc2ccc(Cl)cc2)C(c2ccccc2)(c2ccccc2)C1=O` (configuration not stated) the T/C (dose: 100.0 mg/kg/injection, schedule: Q01DX001 (ip), vehicle: saline sonified) was 105 % of control, the T/C [4] was 89 % of control and the T/C (dose: 200.0 mg/kg/injection, schedule: Q01DX001 (ip), vehicle: saline sonified) was 94 % of control. The T/C [11] was 89 % of control, the T/C (dose: 400.0 mg/kg/injection, schedule: Q01DX001 (ip), vehicle: saline sonified) was 90 % of control and the T/C (dose: 400.0 mg/kg/injection, schedule: Q04DX002 (ip), vehicle: saline with Tween-80) was 89 % of control.

In the case of `COc1cc(C=Nc2cc(Cl)c(O)c(Cl)c2)ccc1N(CCCl)CCCl`, the T/C (dose: 12.5 mg/kg/injection, schedule: Q01DX001 (ip), vehicle: carboxymethylcellulose (CMC)) is reported as 120 % of control and the T/C (dose: 25.0 mg/kg/injection, schedule: Q01DX001 (ip), vehicle: carboxymethylcellulose (CMC)) is reported as 155 % of control.

`COc1ccc(P(=S)(S)c2ccc(OC)cc2)cc1` was tested, and the T/C (dose: 80.5 mg/kg/injection, schedule: Q01DX009 (ip), vehicle: saline with Tween-80) was 95 % of control, the T/C (dose: 161.0 mg/kg/injection, schedule: Q01DX009 (ip), vehicle: saline with Tween-80) was 93 % of control and the T/C (dose: 322.0 mg/kg/injection, schedule: Q01DX009 (ip), vehicle: saline with Tween-80) was 93 % of control.

In the case of `Oc1ccc(O)c(CCCCCc2cc(O)ccc2O)c1`, the T/C (dose: 100.0 mg/kg/injection, schedule: Q01DX009 (ip), vehicle: other) is reported as 102 % of control and the T/C (dose: 200.0 mg/kg/injection, schedule: Q01DX009 (ip), vehicle: other) is reported as 98 % of control.

In the case of `CC1=C(c2ccccc2)C(=O)OC1=O`, the T/C [12] is reported as 98 % of control, the T/C [13] is reported as 103 % of control and the T/C [14] is reported as 107 % of control.

`O=C(C=P(c1ccccc1)(c1ccccc1)c1ccccc1)c1ccc([N+](=O)[O-])cc1` was tested, and the T/C [15] was 90 % of control, the T/C (dose: 100.0 mg/kg/injection, schedule: Q01DX001 (ip), vehicle: Klucel (hydroxypropylcellulose) (HPC)) was 94 % of control and the T/C (dose: 200.0 mg/kg/injection, schedule: Q01DX001 (ip), vehicle: Klucel (hydroxypropylcellulose) (HPC)) was 102 % of control. The T/C (dose: 400.0 mg/kg/injection, schedule: Q01DX001 (ip), vehicle: Klucel (hydroxypropylcellulose) (HPC)) was 93 % of control.

For `CCc1cccc[n+]1Cc1ccccc1`, the T/C (dose: 3.13 mg/kg/injection, schedule: Q01DX009 (ip), vehicle: saline with Tween-80) was 95 % of control, the T/C (dose: 6.25 mg/kg/injection, schedule: Q01DX009 (ip), vehicle: saline with Tween-80) was 91 % of control and the T/C (dose: 12.5 mg/kg/injection, schedule: Q01DX009 (ip), vehicle: saline with Tween-80) was 98 % of control.

For `O=C(O)Cc1ccc(Br)cc1[N+](=O)[O-]`, the T/C (dose: 100.0 mg/kg/injection, schedule: Q01DX001 (ip), vehicle: other) was 104 % of control, the T/C (dose: 200.0 mg/kg/injection, schedule: Q01DX001 (ip), vehicle: other) was 101 % of control and the T/C (dose: 400.0 mg/kg/injection, schedule: Q01DX001 (ip), vehicle: other) was 98 % of control.

With `CCn1c(N)c2c(ncn2Cc2ccccc2)nc1=S` the T/C (dose: 12.5 mg/kg/injection, schedule: Q01DX001 (ip), vehicle: acetone) was 100 % of control, the T/C (dose: 12.5 mg/kg/injection, schedule: Q04DX003 (ip), vehicle: saline with Tween-80) was 98 % of control and the T/C (dose: 25.0 mg/kg/injection, schedule: Q01DX001 (ip), vehicle: acetone) was 100 % of control. For the same molecule, the T/C (dose: 25.0 mg/kg/injection, schedule: Q04DX003 (ip), vehicle: saline with Tween-80) was 98 % of control, the T/C (dose: 50.0 mg/kg/injection, schedule: Q01DX001 (ip), vehicle: acetone) was 103 % of control and the T/C (dose: 50.0 mg/kg/injection, schedule: Q04DX003 (ip), vehicle: saline with Tween-80) was 89 % of control.

With `Cc1ccc(C(=O)OCCN2CCN(c3ccccc3)CC2)c([N+](=O)[O-])c1OCc1ccccc1` the T/C [12] was 98 % of control, the T/C [13] was 91 % of control and the T/C [14] was 91 % of control.

In the case of `Cn1c(=O)c(Br)cc2ccccc21`, the T/C [1] is reported as 102 % of control, the T/C [2] is reported as 96 % of control and the T/C [3] is reported as 96 % of control.

For `COc1ccc(OC)c(NC(=O)NNC(=O)c2ccc(Cl)cc2Cl)c1`, the T/C [5] was 91 % of control, the T/C [7] was 90 % of control and the T/C [9] was 91 % of control.

For `CCCCOc1ccc(Cl)cc1`, the T/C [4] was 90 % of control and the T/C [11] was 87 % of control.

For `COC(=O)C(CCCCN)NS(=O)(=O)c1ccccc1` (configuration not stated), the T/C [5] was 96 % of control, the T/C [6] was 109 % of control and the T/C [7] was 100 % of control. For the same molecule, the T/C [8] was 91 % of control, the T/C [9] was 96 % of control and the T/C [10] was 103 % of control.

In the case of `O=C(O)CCS(=O)(=O)CCC(=O)O`, the T/C [6] is reported as 92 % of control, the T/C [8] is reported as 93 % of control and the T/C [10] is reported as 90 % of control.

In the case of `CCCC(C#N)(CCC)C(=O)OCC`, the T/C (dose: 12.5 mg/kg/injection, schedule: Q01DX001 (ip), vehicle: Klucel (hydroxypropylcellulose) (HPC)) is reported as 102 % of control, the T/C (dose: 25.0 mg/kg/injection, schedule: Q01DX001 (ip), vehicle: Klucel (hydroxypropylcellulose) (HPC)) is reported as 99 % of control and the T/C [15] is reported as 99 % of control.

For `NS(=O)(=O)c1ccc(Cl)c(Cl)c1`, the T/C [5] was 108 % of control and the T/C [7] was 111 % of control.

With `COC(=O)NC(/C=C/c1ccccc1)c1ccccc1` (configuration not stated) the T/C (dose: 100.0 mg/kg/injection, schedule: Q04DX003 (ip), vehicle: other) was 94 % of control, the T/C (dose: 200.0 mg/kg/injection, schedule: Q04DX003 (ip), vehicle: other) was 97 % of control and the T/C (dose: 400.0 mg/kg/injection, schedule: Q04DX003 (ip), vehicle: other) was 97 % of control.
